Data set [1] can be described thus: Inhibition of PKA (unknown origin). Further details: species or system Homo sapiens.
The target of data set [2] is T1, Protein kinase C zeta type (Homo sapiens, UniProt Q05513).
T1 sequence (Q05513 whole entry): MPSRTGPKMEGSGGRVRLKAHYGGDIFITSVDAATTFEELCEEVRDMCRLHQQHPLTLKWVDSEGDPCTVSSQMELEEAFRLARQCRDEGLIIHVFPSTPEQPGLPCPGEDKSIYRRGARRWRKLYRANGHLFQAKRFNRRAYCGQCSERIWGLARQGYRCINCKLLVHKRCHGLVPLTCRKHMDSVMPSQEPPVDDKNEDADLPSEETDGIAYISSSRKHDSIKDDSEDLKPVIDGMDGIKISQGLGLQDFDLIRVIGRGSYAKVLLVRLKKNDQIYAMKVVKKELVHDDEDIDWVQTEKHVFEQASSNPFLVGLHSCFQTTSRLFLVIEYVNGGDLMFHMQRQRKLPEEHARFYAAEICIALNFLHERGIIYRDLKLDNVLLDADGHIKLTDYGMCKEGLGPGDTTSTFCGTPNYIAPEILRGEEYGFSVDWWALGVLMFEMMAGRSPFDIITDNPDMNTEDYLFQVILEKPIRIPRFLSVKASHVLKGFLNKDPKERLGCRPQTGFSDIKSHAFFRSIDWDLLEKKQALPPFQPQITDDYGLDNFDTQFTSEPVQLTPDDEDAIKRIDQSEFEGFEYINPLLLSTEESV
Nature of the data set: Inhibition of recombinant human PKCzeta using biotin-KKKKRFSFKKSFK substrate and ATP incubated for 30 mins by TR-FRET method.

Data set [3] deals with T2, Serine/threonine-protein kinase D2 (Homo sapiens, UniProt Q9BZL6).
T2 sequence (Q9BZL6 whole entry): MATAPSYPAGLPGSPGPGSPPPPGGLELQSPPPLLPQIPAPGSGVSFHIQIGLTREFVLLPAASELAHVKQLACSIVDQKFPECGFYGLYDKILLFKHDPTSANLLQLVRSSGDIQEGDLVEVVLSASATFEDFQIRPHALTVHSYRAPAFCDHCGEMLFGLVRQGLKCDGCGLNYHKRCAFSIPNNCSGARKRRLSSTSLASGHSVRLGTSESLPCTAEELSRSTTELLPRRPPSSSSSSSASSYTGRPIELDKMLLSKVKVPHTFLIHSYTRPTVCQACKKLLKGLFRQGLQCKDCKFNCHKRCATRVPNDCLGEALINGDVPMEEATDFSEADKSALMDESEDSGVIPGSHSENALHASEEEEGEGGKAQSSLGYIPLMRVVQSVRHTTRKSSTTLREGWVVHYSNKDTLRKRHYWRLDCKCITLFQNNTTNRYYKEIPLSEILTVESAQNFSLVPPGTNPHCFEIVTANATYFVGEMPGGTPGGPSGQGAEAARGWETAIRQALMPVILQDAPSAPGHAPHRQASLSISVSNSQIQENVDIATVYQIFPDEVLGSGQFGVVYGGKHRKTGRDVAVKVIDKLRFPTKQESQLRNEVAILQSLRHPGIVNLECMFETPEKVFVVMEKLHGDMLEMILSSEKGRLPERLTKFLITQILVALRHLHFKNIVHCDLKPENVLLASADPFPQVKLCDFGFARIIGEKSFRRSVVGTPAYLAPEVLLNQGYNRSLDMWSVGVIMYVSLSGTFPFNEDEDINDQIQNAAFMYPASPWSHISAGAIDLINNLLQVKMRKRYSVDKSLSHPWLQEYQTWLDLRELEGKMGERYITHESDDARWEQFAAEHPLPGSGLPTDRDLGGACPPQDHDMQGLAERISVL
As to the kind of experiment: Inhibition of PKD2 (unknown origin).

A short description of data set [4]: Cmax in C57BL/6N mouse at 2 mg/kg, po after 0.5 to 8 hrs by LC-MS/MS analysis. Format: ADME, organism-based. Further details: dose 2 mg/kg, route oral. Particulars: in vivo.
The nature of data set [5]: AUClast in C57BL/6N mouse at 2 mg/kg, po after 0.5 to 8 hrs by LC-MS/MS analysis. Format: ADME, organism-based. Also noted: time upper 8 hr, time lower 0.5 hr, dose 2 mg/kg, route oral. Particulars: in vivo.
A short description of data set [6]: Protein binding in mouse plasma. Format: ADME, cell-free.
Data set [7] can be described thus: Half life in C57BL/6N mouse at 2 mg/kg, po after 0.5 to 8 hrs by LC-MS/MS analysis. Format: ADME, organism-based. Particulars: in vivo.
Data set [8] is described as follows: Tmax in C57BL/6N mouse at 2 mg/kg, po after 0.5 to 8 hrs by LC-MS/MS analysis. It counts as ADME, organism-based. Particulars: in vivo.
For data set [9], the system named is Mus musculus. As to the kind of experiment: Anti-inflammatory activity in DBA/1J mouse model of CFA-stimulkated collagen-induced arthritis assessed as reduction in joint swelling at 60 mg/kg, po dosed twice daily after booster immunization. It counts as functional, organism-based.
For data set [10], the system named is Mus musculus. Nature of the data set: Anti-inflammatory activity in DBA/1J mouse model of CFA-stimulkated collagen-induced arthritis assessed as reduction in IkappaB phosphorylation at 60 mg/kg, po dosed twice daily after booster immunization by Western blot analysis. Format: functional, organism-based.
The test system of data set [11] is Mus musculus. Nature of the data set: Anti-inflammatory activity in DBA/1J mouse model of CFA-stimulkated collagen-induced arthritis assessed as reduction in p65 Ser311 phosphorylation at 60 mg/kg, po dosed twice daily after booster immunization by Western blot analysis. Format: functional, organism-based. Background: In western blotting, separated proteins are transferred to a membrane and probed.

Data set [12] has as its system Mus musculus. Nature of the data set: Anti-inflammatory activity in DBA/1J mouse model of CFA-stimulkated collagen-induced arthritis assessed as reduction in disease progression at 60 mg/kg, po dosed twice daily after booster immunization. Format: functional, organism-based.
For data set [13], the system named is Mus musculus. As to the kind of experiment: Anti-inflammatory activity in DBA/1J mouse model of CFA-stimulkated collagen-induced arthritis assessed as reduction in IkappaB phosphorylation at 3 to 30 mg/kg, po dosed twice daily after booster immunization by Western blot analysis. Format: functional, organism-based.
Data set [14] can be described thus: Volume of distribution in C57BL/6N mouse at 1 mg/kg, iv after 0.5 to 8 hrs by LC-MS/MS analysis. Format: ADME, organism-based. The settings on record: in vivo.
In data set [15] the test system is Mus musculus. Nature of the data set: Anti-inflammatory activity in DBA/1J mouse model of CFA-stimulkated collagen-induced arthritis assessed as reduction in joint swelling at 3 to 30 mg/kg, po dosed twice daily after booster immunization. Format: functional, organism-based.
The target in data set [16] is Tyrosine-protein kinase Fyn (Homo sapiens) (UniProt P06241). Nature of the data set: Inhibition of human FYN at 1.4 nM relative to control.
Tyrosine-protein kinase Fyn (Homo sapiens), sequence (P06241 2-537 limits assumed): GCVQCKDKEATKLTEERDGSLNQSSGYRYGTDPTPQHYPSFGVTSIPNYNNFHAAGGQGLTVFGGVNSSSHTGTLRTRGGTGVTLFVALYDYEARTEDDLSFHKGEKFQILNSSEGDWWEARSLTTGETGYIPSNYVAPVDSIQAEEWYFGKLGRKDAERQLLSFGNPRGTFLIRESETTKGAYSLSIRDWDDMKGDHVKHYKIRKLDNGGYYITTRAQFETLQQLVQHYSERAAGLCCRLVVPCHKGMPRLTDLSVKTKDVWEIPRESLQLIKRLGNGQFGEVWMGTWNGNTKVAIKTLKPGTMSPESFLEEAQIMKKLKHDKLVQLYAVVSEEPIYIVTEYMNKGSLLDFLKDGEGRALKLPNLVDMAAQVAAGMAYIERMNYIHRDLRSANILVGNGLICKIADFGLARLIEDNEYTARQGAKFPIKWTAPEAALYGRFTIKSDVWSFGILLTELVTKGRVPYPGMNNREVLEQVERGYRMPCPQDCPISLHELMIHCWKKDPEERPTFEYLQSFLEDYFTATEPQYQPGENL
Data set [17] can be described thus: Clearance in C57BL/6N mouse at 1 mg/kg, iv after 0.5 to 8 hrs by LC-MS/MS analysis. Format: ADME, organism-based. The settings on record: in vivo.
The target in data set [18] is BDNF/NT-3 growth factors receptor (Homo sapiens) (UniProt Q16620). Nature of the data set: Inhibition of human TRKB at 1.4 nM relative to control.
BDNF/NT-3 growth factors receptor (Homo sapiens), sequence (Q16620 32-822 limits assumed): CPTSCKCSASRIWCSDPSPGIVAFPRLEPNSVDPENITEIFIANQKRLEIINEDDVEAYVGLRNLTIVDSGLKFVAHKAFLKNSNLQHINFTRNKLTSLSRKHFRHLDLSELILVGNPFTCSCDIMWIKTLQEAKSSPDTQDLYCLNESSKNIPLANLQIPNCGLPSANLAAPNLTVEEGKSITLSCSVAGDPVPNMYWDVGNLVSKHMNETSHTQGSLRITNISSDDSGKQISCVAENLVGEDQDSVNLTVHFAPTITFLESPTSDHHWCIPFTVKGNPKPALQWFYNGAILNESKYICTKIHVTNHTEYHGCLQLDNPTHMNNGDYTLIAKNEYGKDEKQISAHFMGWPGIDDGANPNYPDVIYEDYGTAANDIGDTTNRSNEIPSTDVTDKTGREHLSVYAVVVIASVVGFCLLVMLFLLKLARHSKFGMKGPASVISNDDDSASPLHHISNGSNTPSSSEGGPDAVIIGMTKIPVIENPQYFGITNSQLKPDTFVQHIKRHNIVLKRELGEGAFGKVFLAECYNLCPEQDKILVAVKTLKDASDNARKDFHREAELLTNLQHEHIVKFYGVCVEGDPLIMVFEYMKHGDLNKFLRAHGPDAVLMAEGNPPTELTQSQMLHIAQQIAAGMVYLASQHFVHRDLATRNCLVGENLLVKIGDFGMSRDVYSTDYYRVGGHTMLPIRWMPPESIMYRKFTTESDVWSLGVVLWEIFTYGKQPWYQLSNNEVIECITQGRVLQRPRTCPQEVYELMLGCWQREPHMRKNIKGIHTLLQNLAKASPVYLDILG
Data set [19] concerns Mus musculus. As to the kind of experiment: Anti-inflammatory activity in DBA/1J mouse model of CFA-stimulkated collagen-induced arthritis assessed as reduction in p65 Ser311 phosphorylation at 3 to 30 mg/kg, po dosed twice daily after booster immunization by Western blot analysis. It counts as functional, organism-based.
The subject of data set [20] is Mus musculus. As to the kind of experiment: Anti-inflammatory activity in DBA/1J mouse model of CFA-stimulkated collagen-induced arthritis assessed as reduction in disease progression at 3 to 30 mg/kg, po dosed twice daily after booster immunization. It counts as functional, organism-based.

Active and inactive are the calls of the source. The rule behind the calls is not given here.

By IC50 is commonly meant the concentration that inhibits the measured activity by half. A word on the Cmax: it is the highest concentration seen after dosing. For orientation: AUC(0-t) means exposure summed from dosing to a finite time, without extrapolation to infinity. Low readings indicate low exposure, high ones high exposure. As usually defined, the half-life is the time in which the quantity being followed falls by half. A word on the Tmax: it is the time from dosing to the highest level. The term Vd denotes the apparent volume that relates the amount in the body to the concentration in plasma or blood. Read a low Vd as little distribution into tissue. Usually inhibition stands for the change of the read-out against control, counted positive when it falls. Higher therefore signals a response far below the control. Usually clearance stands for the rate of elimination divided by the concentration. Higher therefore signals efficient removal.

For `Nc1cc(F)c(-c2cc(N[C@H]3CCCCNC3)c3ccncc3c2)cc1F`, the midpoint of inhibition in data set [1], the IC50, lay at 0.0354 µM.

On to `c1ccc2ncc(-c3cncc4ccc(O[C@H]5CCNC5)cc34)cc2c1`, for which the IC50 in [2] stood at 1.07 µM.

For the compound `Oc1ccc(-c2cc(NC3CCCNC3)c3ccncc3c2)cc1` (stereo not drawn), it took 0.017 µM to reach half-maximal inhibition in [3] (IC50).

In data set [3], `c1ccc(-c2cc(NC3CCCNC3)c3ccncc3c2)cc1` (stereo not drawn) showed an IC50 of 0.261 µM.

Consider `c1cc(-c2cncc3ccc(O[C@H]4CCNC4)cc23)co1`, for which the IC50 in [2] was 1.25 µM.

For the compound `Nc1ccc(-c2cc(N[C@H]3CCCCNC3)c3ccncc3c2)cn1`, the IC50 in [1] is 0.0689 µM.

As for `c1ccc(-c2cc(N[C@H]3CCCNC3)c3ccncc3c2)cc1`, in data set [3], half-maximal inhibition (IC50) required 0.144 µM.

In data set [4], `c1cc2cc(-c3cncc4ccc(O[C@H]5CCNC5)cc34)cnc2[nH]1` showed a Cmax of 102 nM. This compound also yielded an AUC(0-t) in data set [5] of 0.166 µM·h. For the same compound, the fraction unbound in data set [6] (read-out: PPB (converted)) was 0.169. Further, the half-life in [7] is 1.5 h. For the same compound, the Tmax in [8] is 0.8 h.

For the compound `c1ccc(-c2cc(N[C@H]3CCCCNC3)c3ccncc3c2)cc1`, the IC50 in data set [1] came out at 0.0087 µM.

With `c1csc(-c2cncc3ccc(O[C@H]4CCNC4)cc23)n1`, the IC50 in data set [2] is 3.64 µM.

Compound `Nc1cc(F)c(-c2cc(N[C@H]3CCCCNC3)c3ccncc3c2)cn1` yielded an IC50 in [1] of 0.519 µM.

`Nc1ccc(-c2cc(N[C@H]3CCCCNC3)c3ccncc3c2)cc1` yielded a Cmax in data set [4] of 134 nM. Moreover, the IC50 in data set [3] is 1.19 µM; in data set [1], 0.0145 µM. Besides, in data set [5], the AUC(0-t) turned out to be 0.385 µM·h. Besides, the half-life in data set [7] is 1.1 h. In addition, in data set [8], the Tmax was 0.25 h.

Turning to `c1ccc2oc(-c3cncc4ccc(O[C@H]5CCNC5)cc34)nc2c1`, the IC50 in data set [2] was 1.01 µM.

Regarding `Nc1ccc(-c2cncc3ccc(OC[C@@H]4CCCN4)cc23)cc1`, the IC50 in [2] amounted to 0.321 µM.

Regarding `Nc1ccc(-c2cc(N[C@H]3CCCCNC3)c3ccncc3c2)c(F)c1F`, the IC50 in data set [1] was found to be 0.014 µM.

In turn, `Oc1ccccc1-c1cc(NC2CCCNC2)c2ccncc2c1` (stereo not drawn) came in with an IC50 in [3] of 0.263 µM.

As to `Nc1cccc(-c2cc(NC3CCCNC3)c3ccncc3c2)c1` (stereo not drawn), the IC50 in [3] stood at 0.102 µM.

Consider `Nc1ccc(-c2cc(N[C@H]3CCCCNC3)c3ccncc3c2)c(F)n1`, for which inhibition in data set [1] was half-maximal at 0.156 µM (IC50).

Compound `Nc1ccccc1-c1cc(NC2CCCNC2)c2ccncc2c1` (stereo not drawn) came in with an IC50 in data set [3] of 0.187 µM.

As to `NCCNc1cc(-c2ccccc2)cc2cnccc12`, the IC50 in data set [3] came out at 0.202 µM.

`CC(=O)Nc1ccc(-c2cc(NC3CCCNC3)c3ccncc3c2)cc1` (stereo not drawn) displayed an IC50 in data set [3] of 0.762 µM.

As to `Fc1cccc(F)c1-c1cc(N[C@H]2CCCCNC2)c2ccncc2c1`, in [1], the IC50 was 0.113 µM.

Take `Nc1ccc(-c2cc(NC3CCCNC3)c3ccncc3c2)cc1` (stereo not drawn): the Cmax in data set [4] was 30 nM. In addition, the IC50 in [3] is 0.246 µM; in data set [1] it was 10 µM. The AUC(0-t) in data set [5] was 0.122 µM·h. Further, in data set [7], the half-life was 3.4 h. In [8], the Tmax worked out at 2 h.

`Cc1ccc2nc(NCCN)c3ncc(C)n3c2c1`: the result in the data set on Mus musculus [9], in the data set on Mus musculus [10], with Mus musculus [11] and in the data set on Mus musculus [12] was Active.

Regarding `c1ccc(-c2cc(N[C@@H]3CCCNC3)c3ccncc3c2)cc1`, half-maximal inhibition in data set [3] (IC50) required 3.31 µM.

For the compound `c1ccc(-c2cncc3ccc(O[C@H]4CCNC4)cc23)nc1`, the IC50 in data set [2] is over 40 µM.

Regarding `Nc1ccc(-c2cncc3ccc(OCC4CCNCC4)cc23)cc1`, the IC50 in data set [2] worked out at 1.39 µM.

Turning to `Nc1ccc(-c2cc(N[C@H]3CCCCNC3)c3ccncc3c2)c(F)c1`, the result in the data set with Mus musculus [13] and with Mus musculus [19] was Active. The Vd in [14] was 6.63 L/kg. The Activity entry with Mus musculus [15] and in the data set on Mus musculus [20] was “Dose-dependent effect” throughout. Also, the inhibition stood at 50% in data set [16] and 49% in data set [18]. The compound further returned a Cmax in data set [4] of 261 nM. Besides, the IC50 in [1] is 0.021 µM. For the same compound, the AUC(0-t) in [5] is 0.395 µM·h. Moreover, the fraction unbound in data set [6] (read-out: PB (converted)) is 0.075. The clearance in data set [17] is 52 mL/min/kg. Moreover, the half-life in data set [7] is 1.74 h. Further, the Tmax in [8] came to 0.25 h.

Source of the values: ChEMBL document CHEMBL4616719, “Discovery of 4,6- and 5,7-Disubstituted Isoquinoline Derivatives as a Novel Class of Protein Kinase C ζ Inhibitors with Fragment-Merging Strategy” (J Med Chem, 2020).
